In publication PMC7136958, “Targeting the pregnane X receptor using microbial metabolite mimicry” (EMBO Molecular Medicine, 2020):
Values joined by “and” are separate entries in the source; they are usually repeats but may differ in a detail not shown here. Equal entries are not always repeated.

Tests used:
JNK1 = JNK1 (Homo sapiens, UniProt P45983); test: KINOMEscan select kinase screen; type: binding; details: two experiments
Description: (§1) Kinase Assays. The kinase inhibition assays were conducted by DiscoverX on a platform assay by Ambit BioSciences as described previously 16,17. FKK6 was screened at a single concentration of 10 μM in duplicate. The scanMAXSM assay panel measures 468 kinases
(§2) (https://www.discoverx.com/services/drug-discovery-development-services/kinase-profiling/kinomescan/scanmax). The assays measure a compound’s ability to inhibit binding of a canonical ligand substrate, with 0% activity of control corresponding to full inhibition and 100% activity of control to no inhibition. […]

JNK2 = JNK2 (Homo sapiens, UniProt P45984); test: KINOMEscan select kinase screen; type: binding; details: two experiments
Sequence of JNK2 (P45984 whole entry): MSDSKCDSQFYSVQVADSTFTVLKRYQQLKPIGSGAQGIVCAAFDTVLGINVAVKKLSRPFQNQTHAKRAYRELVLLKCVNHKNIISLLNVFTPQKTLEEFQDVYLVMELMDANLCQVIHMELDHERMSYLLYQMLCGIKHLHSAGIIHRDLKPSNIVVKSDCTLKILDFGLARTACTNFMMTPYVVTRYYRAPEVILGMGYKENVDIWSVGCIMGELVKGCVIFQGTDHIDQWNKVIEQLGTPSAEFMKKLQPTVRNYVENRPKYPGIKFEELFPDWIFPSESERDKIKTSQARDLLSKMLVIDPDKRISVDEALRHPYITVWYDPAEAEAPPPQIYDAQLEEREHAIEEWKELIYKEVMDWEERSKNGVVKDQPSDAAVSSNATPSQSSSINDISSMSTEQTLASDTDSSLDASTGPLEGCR
Description: as §1, §2

S6K1 = S6K1 (Homo sapiens, UniProt P23443); test: KINOMEscan select kinase screen; type: binding; details: two experiments
Sequence of S6K1 (P23443 whole entry): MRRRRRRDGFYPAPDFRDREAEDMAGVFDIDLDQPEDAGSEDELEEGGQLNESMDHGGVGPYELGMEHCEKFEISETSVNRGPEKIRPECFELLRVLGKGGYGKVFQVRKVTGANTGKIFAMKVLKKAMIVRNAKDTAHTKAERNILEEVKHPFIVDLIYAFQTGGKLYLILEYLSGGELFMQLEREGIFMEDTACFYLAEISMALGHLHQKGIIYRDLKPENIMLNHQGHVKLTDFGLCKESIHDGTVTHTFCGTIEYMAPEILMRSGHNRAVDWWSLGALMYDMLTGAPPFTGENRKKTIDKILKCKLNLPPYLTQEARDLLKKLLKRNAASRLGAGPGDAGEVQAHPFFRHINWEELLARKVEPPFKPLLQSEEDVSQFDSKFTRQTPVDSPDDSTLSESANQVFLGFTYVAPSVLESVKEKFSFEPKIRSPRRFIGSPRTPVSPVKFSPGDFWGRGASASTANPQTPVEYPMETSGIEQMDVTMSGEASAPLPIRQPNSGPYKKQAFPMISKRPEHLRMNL
Description: as §1, §2

mice = test: 30 Day toxicity study in mice; type: in vivo, mouse
Description: The LS180 cell line was used to assess cell cytotoxicity using the MTT (3‐(4,5‐dimethylthiazolyl‐2)‐2,5‐diphenyltetrazolium bromide) assay as previously described (Bartonkova et al, 2015, 2016). […] FKK6 was selected as a lead compound for assessment, given that it had the more favorable PXR‐selective ligand activity in cells. […] The mice were gavaged for ten consecutive days and necropsied on day 12 with the collection of blood (serum). […] Similarly, a 30‐day toxicity test was conducted in mice using FKK6 at an oral dose of 200 μM in 0.8% DMSO per day. We chose this dose to stay within the safe DMSO dose administered to mice over 30 days. On day 30, we necropsied the mice and collected blood (serum).

P300 = target: T1, P300 (Homo sapiens, UniProt Q09472); test: Histone acetyltransferase assay p300 (Reaction Biology); type: biochemical
T1 construct: or p300 (aa 1284-1672); purchased Reaction Biology Corp; host or cells: E. coli
T1 sequence (Q09472 1284-1672): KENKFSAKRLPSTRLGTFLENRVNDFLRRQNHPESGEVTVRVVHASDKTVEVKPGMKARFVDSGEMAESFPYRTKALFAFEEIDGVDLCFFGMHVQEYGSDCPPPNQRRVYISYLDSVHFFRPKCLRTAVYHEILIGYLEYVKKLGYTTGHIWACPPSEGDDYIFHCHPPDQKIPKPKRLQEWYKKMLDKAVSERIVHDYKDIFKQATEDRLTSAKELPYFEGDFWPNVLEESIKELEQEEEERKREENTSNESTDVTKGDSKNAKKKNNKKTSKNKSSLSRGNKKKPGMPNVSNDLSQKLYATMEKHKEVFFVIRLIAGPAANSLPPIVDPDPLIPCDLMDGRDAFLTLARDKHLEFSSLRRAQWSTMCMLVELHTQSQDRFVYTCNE
Description: Software Tool and reprinted with permission from KINOME scan®, a division of DiscoveRx […]
The following […] assays (HDAC, SIRT1, PRMT1, PARP1, p300, pCAF) were performed by Reaction Biology Corp. FKK6 was screened at a single concentration of 10 μM in duplicate in two separate experiments. The appropriate controls for the individual assays are published. The overall […]
enzyme activity in the assay is reported as a % activity in DMSO control wells. Control IC50 […]
Briefly, for the Sirtuin (SIRT1) assay, human SIRT1 (GenBank
Accession No. NM012238) full -length N-terminal His-tag protein (MW 83.2 kDa) was purified after expression in E. coli. […]
8), 50 mM NaCl, 0.1 mM EDTA, 1 mM DTT, 1 mM PMSF, and 1% DMSO. […] The radioactivity in mixture is detected on washed filter paper using a scintillation counter. […]
The 2X HDAC substrate is a fluorogenic acetylated peptide from p53 (residues 379 - 38 2 RHKK(Ac)AMC) which is mixed in with the enzyme-compound complex and incubated for 1-2 h at 30 °C. In the development step, a proprietary developer with trichostatin A (or TMP269) is added to stop the reaction and to generate fluorescent color which is read using an EnVision Multilabel Plate Reader (Perkin Elmer) (Ex 360 nm/ Em 460 nm). […]

[1] = oral 200 μM in 0.8% DMSO per day, 30 days

Sequence of JNK1 (P45983 whole entry): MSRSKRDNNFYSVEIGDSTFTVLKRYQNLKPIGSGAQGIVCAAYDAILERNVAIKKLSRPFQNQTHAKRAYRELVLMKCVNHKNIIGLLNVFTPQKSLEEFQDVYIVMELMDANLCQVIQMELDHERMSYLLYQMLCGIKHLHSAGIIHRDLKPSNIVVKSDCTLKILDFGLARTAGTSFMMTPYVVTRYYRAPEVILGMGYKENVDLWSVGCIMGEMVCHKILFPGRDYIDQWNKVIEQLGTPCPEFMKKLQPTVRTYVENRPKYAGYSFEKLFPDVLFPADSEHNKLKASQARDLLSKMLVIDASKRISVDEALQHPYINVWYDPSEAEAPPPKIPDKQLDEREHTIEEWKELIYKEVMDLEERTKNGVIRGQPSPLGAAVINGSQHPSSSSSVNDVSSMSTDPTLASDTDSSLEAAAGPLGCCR

SMILES | %Ctrl (JNK1; 10000 nM, 10 µM) | remaining binding at 10 µM (JNK1; 10000 nM, read-out: %Ctrl) | %Ctrl (JNK1; 25000 nM, 25 µM) | remaining binding at 25 µM (JNK1; 25000 nM, read-out: %Ctrl) | %Ctrl (JNK2; 10000 nM, 10 µM) | remaining binding at 10 µM (JNK2; 10000 nM, read-out: %Ctrl) | %Ctrl (JNK2; 25000 nM, 25 µM) | remaining binding at 25 µM (JNK2; 25000 nM, read-out: %Ctrl) | %Ctrl (S6K1; 10000 nM, 10 µM) | %Ctrl (S6K1; 25000 nM, 25 µM) | remaining binding at 25 µM (S6K1; 25000 nM, read-out: %Ctrl) | Histopathology: Liver (mice; 30 day, n=6) | Histopathology: Lung (mice; 30 day, n=6) | Histopathology: Spleen (mice; 30 day, n=6) | serum chemistry profiles (mice; [1]) | tissue pathology vs vehicle (mice; [1]) | % Enzyme Activity to DMSO controls (P300; 10 μM, substrate Histone H3, replicates data1/2 Exp 1/2) | remaining activity at 10 µM (P300; substrate Histone H3, replicates data1/2 Exp 1/2, read-out: % Enzyme Activity to DMSO controls)
O=C(c1ccncc1)c1cc2ccccc2n1S(=O)(=O)c1ccccc1 [FKK5, (1-(phenylsulfonyl)-1H-indol-2-yl)(pyridin-4-yl)methanone] | 95 %Ctrl | 91% | 85 %Ctrl | 66% | 88 %Ctrl | 95% | 80 %Ctrl | 74% | 79 %Ctrl and 100 %Ctrl | 89 %Ctrl | 71% | – | – | – | – | – | – | –
C#CCC(O)(c1ccncc1)c1cc2ccccc2n1S(=O)(=O)c1ccccc1 (stereo not drawn) [FKK6] | – | – | – | – | – | – | – | – | – | – | – | Mild perivascular lymphohistiocytic aggregates (n=4) | Mild leukocytes (n=2) | Mild lymphoid hyperplasia (n=2) | did not significantly alter serum chemistry profiles | did not significantly alter serum chemistry profiles (Fig EV3C and D) or impact tissue pathology | 97.73% and 98.72% and 95.38% | 100%
